# Assays:
# human erythrocytes = experiment: GSH:GSSG ratio in treated human erythrocytes; settings: 24 hours, 0.6% hematocrit, DMSO control 125:1
# [1] = molecular target: glucose-6-phosphate dehydrogenase (G6PDH) (Homo sapiens, UniProt P11413); experiment: G6PDH enzyme activity in lysates of treated human erythrocytes; parameters: inhibition of the G6PDH activity: dose or concentration left out as unconfirmed
# [2] = molecular target: T1, glutathione reductase (GR) (Homo sapiens, UniProt P00390); experiment: Glutathione reductase (GR) enzyme activity in lysates of treated human erythrocytes; settings: for inhibition of the enzyme GR: concentration not given
# T1 sequence (P00390 1-479 isoform P00390-2): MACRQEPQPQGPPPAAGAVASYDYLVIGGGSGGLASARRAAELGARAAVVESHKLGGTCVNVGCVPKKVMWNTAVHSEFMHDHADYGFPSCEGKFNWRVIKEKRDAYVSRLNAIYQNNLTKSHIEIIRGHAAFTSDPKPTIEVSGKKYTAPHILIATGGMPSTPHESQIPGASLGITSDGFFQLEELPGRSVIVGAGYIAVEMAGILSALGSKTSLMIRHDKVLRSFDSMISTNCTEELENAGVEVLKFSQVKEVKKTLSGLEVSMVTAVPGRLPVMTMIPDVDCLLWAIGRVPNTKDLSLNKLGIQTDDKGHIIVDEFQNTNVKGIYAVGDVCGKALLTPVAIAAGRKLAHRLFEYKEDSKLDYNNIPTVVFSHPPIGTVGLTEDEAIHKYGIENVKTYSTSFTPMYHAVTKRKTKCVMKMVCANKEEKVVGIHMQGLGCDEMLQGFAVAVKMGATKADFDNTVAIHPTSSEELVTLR
# Sequence of glucose-6-phosphate dehydrogenase (G6PDH) (P11413 whole entry): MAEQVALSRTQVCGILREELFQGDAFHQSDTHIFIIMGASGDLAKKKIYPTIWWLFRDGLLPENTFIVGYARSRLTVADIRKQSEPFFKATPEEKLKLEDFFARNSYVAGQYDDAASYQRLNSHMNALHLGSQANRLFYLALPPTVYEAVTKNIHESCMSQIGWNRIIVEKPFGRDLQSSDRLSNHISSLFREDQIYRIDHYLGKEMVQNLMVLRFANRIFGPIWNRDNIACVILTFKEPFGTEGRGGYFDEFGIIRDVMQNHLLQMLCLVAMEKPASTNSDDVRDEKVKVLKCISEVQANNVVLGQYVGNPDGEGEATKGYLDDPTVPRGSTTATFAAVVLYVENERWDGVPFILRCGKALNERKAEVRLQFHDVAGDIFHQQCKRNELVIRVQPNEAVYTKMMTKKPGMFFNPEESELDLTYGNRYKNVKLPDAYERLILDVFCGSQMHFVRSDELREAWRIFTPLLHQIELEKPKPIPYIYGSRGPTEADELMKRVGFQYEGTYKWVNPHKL
Compound,GSH:GSSG ratio (human erythrocytes; 20 μM),"inhibition of the G6PDH activity ([1]; (clinically relevant concentration), erythrocytes treated 24 hours)",inhibition of G6PDH ([1]; already in low concentrations),inhibition at 20 µM ([1]; read-out: G6PDH-inhibition),"GSR inhibition ([2]; 20 μM, erythrocytes 0.6% Hct treated 24 hours)",inhibition of the enzyme GR [2],GSH:GSSG ratio (human erythrocytes; 140 μM),inhibition at 140 µM ([1]; read-out: inhibition of G6PDH),inhibition at 140 µM ([2]; read-out: GR inhibition)
"Cc1ccc(S(=O)(=O)/C=C/C#N)cc1 [Bay 11-7082, 3-[(4-methylphenyl)sulfonyl]-(2E)-propenenitrile]",equal to 0 or approaching 0,complete inhibition,complete,100%,complete GSR inhibition,completely,,,
"COC(=O)/C=C/C(=O)OC [dimethylfumarate, (E)-2-butenedioic acid dimethyl ester]",,,,,,50%,equal to 0 or approaching 0,≥ 50%,≥ 50%

# Reference: patent US10420746B2, “Pharmaceutical composition containing Bay 11-7082, parthenolide or a combination thereof for the treatment of obesity or cardiovascular diseases” (priority 2015, dated 2019)
